{"source": "patent US20250076288A1", "about": "“STABILIZED PEPTIDES FOR BIOMARKER DETECTION” (Dana-Farber Cancer Institute, Inc., priority 2018, published 2025)", "key": {"[1]": {"system": "actin", "experiment": "Visualization of actin in U2OS cells with TAMRA- and biotin-labeled stapled peptides", "assay_type": "cell-based"}, "[2]": {"system": "actin filaments", "experiment": "Staple scan of TAMRA-tagged stapled Abp140 peptides: actin binding over time by fluorescence microscopy in C2C12 cells", "assay_type": "cell-based", "settings": "C2C12 mouse myoblast cells, TAMRA-tagged peptides (b)-(g) compared", "source_text": "As a proof of concept, hydrocarbon staples were introduced at different locations in a peptide with known binding attributes for a target protein in order to identify stapled peptides with enhanced stability, cell penetrance, and that retain or enhance target binding. As shown in FIG. 1 (row (a)), a peptide composed of 17 amino acids from the N-terminus of the S. cerevisiae Abp 140 protein that binds to actin filaments was chosen for modification. In the native protein, this peptide has an alpha-helical structure that is a recognition motif for actin. At least one all-hydrocarbon staple was introduced at various locations of the peptide to stabilize the alpha-helical recognition motif to produce stapled peptides markers for actin (see rows (b)-(g) in FIG. 1; the location of hydrocarbon staples in the peptide sequence is demarcated by an X, wherein X is(S)-2-(4′-pentenyl)alanine). […] After 3 hours of incubation, cells were washed with PBS to remove extra peptide reagent and fluorescence microscopy was then used to assess actin binding by the peptides, and to determine overall peptide stability. […] The stapled peptide that retained actin binding over the longest period of time, as determined by fluorescence in cells, was selected as having hydrocarbon staple(s) at the optimal sequence locations for improving peptide stability for biomarker detection."}, "[3]": {"system": "actin", "experiment": "Actin visualization in fixed murine tissues", "assay_type": "cell-based, mouse", "settings": "fixed murine heart, lower extremity and tongue, FIG. 5"}, "[4]": {"system": "actin", "experiment": "Labeling of actin in live zebrafish, confocal microscopy", "assay_type": "in vivo", "settings": "10 μM, room temperature, 2 hours, then 50 μM chloroquine for 30 minutes; skin; FIG. 9", "method": "In a further application, a lead TAMRA-labeled stapled actin-binding peptide was incubated with live zebrafish (10 μM, room temperature, 2 hours), followed by treatment with 50 μM chloroquine for 30 minutes to achieve complete endosomal release and was immediately imaged by confocal microscopy (FIG. 9)."}, "[5]": {"system": "actin filaments", "experiment": "Labeling of actin filaments in live C2C12 cells, confocal microscopy", "assay_type": "cell-based, mouse", "settings": "10 μM, room temperature, 2 hours, then 50 μM chloroquine for 30 minutes", "method": "To determine if stabilized peptides can be used to detect biomarkers in live cells, stapled peptide (g) (see FIG. 1, row (g)) was used to label actin filaments in mouse myoblast cells (C2C12 cell line, ATCC® CRL-1772™). Initially, cells were seeded at a density of 10,000 cells/well in 96 well plates in DMEM media and incubated overnight at 37° C. […] After washing the cells with phosphate-buffered saline (PBS), Hoechst DNA dye was then added to the cells, which were further incubated at room temperature for 30 minutes before being washed again to remove extra dye. Afterwards, confocal microscopy was used to determine the intracellular localization of the fluorescent-tagged stapled peptide.\nThis technology can be applied for, e.g., to FACS and other fluorescent high-throughput screening methods to for example detect overexpression of biomarkers in fixed and living cells."}, "[6]": {"system": "actin filaments", "experiment": "Labeling of actin filaments in fixed C2C12 cells, confocal microscopy", "assay_type": "cell-based, mouse", "method": "Stapled peptide (g) was also used to detect actin filaments in fixed C2C12 cells. Cells were seeded in 96 well plates at a density of 10,000 cells/well in DMEM media and incubated overnight at 37° C. The cells were fixed using 4% paraformaldehyde in PBS for 20 minutes and then permeabilized using 0.3% Triton-X100 in PBS for 10 minutes. This was followed by the addition of Hoechst DNA dye to the cells to stain nuclei, and FITC-phalloidin (Acti-stain™ 488 phalloidin, Cat. #PHDG1-A, Cytoskeleton, Inc.) to label F actin. After rinsing the cells with PBS, serial dilutions of each peptide were transferred to the cells, and the cells were incubated at 37° C. for 30 minutes. Confocal microscopy was then used to detect the cellular localization of the stapled peptide (g) fused to a fluorescent tag."}}, "note": "Bridges are numbered along the chain shown (N, C = ends). Where no end group is shown, it is not given here. [ ]: non-standard residue; d: D form. The star is where a group is joined. Biotin = O=C1N[C@H]2[C@H](CS[C@H]2CCCCC(=O)*)N1; S5 = C=CCCC[C@](C)(N)C(=O)O; Nle = CCCC[C@H](N)C(=O)O"}
{"substance": "(h): stapled actin-binding peptide with alanine substitution and Lysine(Biotin) ([Nle]GVADLIKKFE[S5]IAK[S5]EK(Biotin); staple 12-16; not fully specified)", "values": [{"measurement": "actin detection in U2OS cells, indirect detection with fluorescently-labeled streptavidin", "setting": "[1]; biotin label, fixed cells, FIG. 4B", "result": "robust actin detection was observed"}]}
{"substance": "peptide (f): hydrocarbon-stapled Abp140 N-terminal 17-mer, TAMRA-tagged; selected as most stable stapled peptide marker for actin ([Nle]GVADLIKKFE[S5]ISK[S5]EK(TAMRA); staple 12-16)", "values": [{"measurement": "period of time over which actin binding is retained, as determined by fluorescence in cells", "setting": "[2]", "result": "exhibited actin binding for the longest period of time"}]}
{"substance": "peptide (g): peptide (f) with a serine to alanine substitution (S14A); Lysine(TAMRA)-tagged stapled actin-binding peptide ([Nle]GVADLIKKFE[S5]IAK[S5]EK(TAMRA); staple 12-16)", "values": [{"measurement": "actin visualization in mouse tissues", "setting": "[3]", "result": "robust actin visualization in heart, lower extremity, and tongue specimens"}, {"measurement": "labeling of actin in live zebrafish", "setting": "[4]", "result": "can label actin in the skin of live zebrafish"}, {"measurement": "cell entry and labeling of actin filaments in live cells", "setting": "[5]", "result": "entered live cells and selectively bound to and labeled actin filaments"}, {"measurement": "actin detection in U2OS cells, direct fluorescence detection", "setting": "[1]; TAMRA label, FIG. 4A", "result": "robust actin detection was observed"}, {"measurement": "labeling of actin filaments in fixed cells", "setting": "[6]; C2C12 cells fixed with 4% paraformaldehyde, permeabilized with 0.3% Triton-X100, confocal microscopy", "result": "selectively bound to and labeled actin filaments"}, {"measurement": "co-localization with the FITC-phalloidin-labeled actin filament network", "setting": "[6]; fixed C2C12 cells", "result": "co-localized with the actin filament network"}]}
